# Tests used:
# [1] = molecular target: Epidermal growth factor receptor (Homo sapiens, UniProt P00533); experiment: Inhibition of EGFR (unknown origin)
# [2] = Inhibition of PI3K (unknown origin) by ADP-Glo assay; design: species or system Homo sapiens
# [3] = Cytotoxicity against rat C6 cells assessed as reduction in cell viability incubated for 48 hrs by MTT assay; assay type: toxicity, cell-based
# [4] = molecular target: Phosphatidylinositol 4,5-bisphosphate 3-kinase catalytic subunit alpha isoform (Homo sapiens, UniProt P42336); experiment: Inhibition of PI3Kalpha (unknown origin)
# Phosphatidylinositol 4,5-bisphosphate 3-kinase catalytic subunit alpha isoform, sequence (P42336 whole entry, canonical isoform): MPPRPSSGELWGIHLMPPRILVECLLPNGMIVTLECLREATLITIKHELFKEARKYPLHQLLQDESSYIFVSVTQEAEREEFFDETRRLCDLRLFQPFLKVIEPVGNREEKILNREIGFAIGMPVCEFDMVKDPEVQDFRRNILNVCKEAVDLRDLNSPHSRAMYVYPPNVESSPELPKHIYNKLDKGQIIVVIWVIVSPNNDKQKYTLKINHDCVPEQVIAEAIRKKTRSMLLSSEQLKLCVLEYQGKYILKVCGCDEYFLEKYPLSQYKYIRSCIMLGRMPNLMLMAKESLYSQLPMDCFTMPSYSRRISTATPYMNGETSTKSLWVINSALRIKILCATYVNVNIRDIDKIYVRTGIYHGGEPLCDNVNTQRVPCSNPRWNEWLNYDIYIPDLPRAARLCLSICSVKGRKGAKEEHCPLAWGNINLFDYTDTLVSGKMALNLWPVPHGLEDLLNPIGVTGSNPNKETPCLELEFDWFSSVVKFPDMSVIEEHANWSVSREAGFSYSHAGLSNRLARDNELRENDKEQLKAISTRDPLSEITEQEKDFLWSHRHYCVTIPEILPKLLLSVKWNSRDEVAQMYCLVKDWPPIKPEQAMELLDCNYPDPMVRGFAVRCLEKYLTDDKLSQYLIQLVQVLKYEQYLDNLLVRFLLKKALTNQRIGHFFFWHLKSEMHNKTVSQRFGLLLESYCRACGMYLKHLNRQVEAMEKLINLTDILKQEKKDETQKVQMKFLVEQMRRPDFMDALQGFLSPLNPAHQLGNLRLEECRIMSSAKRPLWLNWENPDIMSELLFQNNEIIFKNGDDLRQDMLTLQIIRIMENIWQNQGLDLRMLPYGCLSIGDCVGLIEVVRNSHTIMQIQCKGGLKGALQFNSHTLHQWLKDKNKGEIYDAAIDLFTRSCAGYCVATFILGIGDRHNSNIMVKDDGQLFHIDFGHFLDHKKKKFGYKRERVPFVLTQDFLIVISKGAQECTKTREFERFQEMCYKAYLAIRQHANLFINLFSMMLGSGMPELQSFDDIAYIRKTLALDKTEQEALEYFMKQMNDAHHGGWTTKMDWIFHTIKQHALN
# Histone deacetylase = experiment: Inhibition of HDAC (unknown origin); assay type: protein assay, Homo sapiens
# HCT-116 = experiment: Cytotoxicity against human HCT-116 cells; assay type: functional, cell-based
# K562 [5] = experiment: Cytotoxicity against human K562 cells; assay type: functional, cell-based
# HuT78 = experiment: Cytotoxicity against human HuT78 cells; assay type: functional, cell-based
# MOLM-13 = experiment: Cytotoxicity against human MOLM-13 cells assessed as cell growth inhibition incubated for 72 hrs by MTS assay; assay type: functional, cell-based; settings: MOLM-13, 72 h
# MV4-11 = experiment: Cytotoxicity against human MV4-11 cells assessed as cell growth inhibition incubated for 72 hrs by MTS assay; assay type: functional, cell-based; settings: MV4-11, 72 h
# [6] = Inhibition of PDE2 (unknown origin); design: species or system Homo sapiens
# Homo sapiens = species on record: Homo sapiens; experiment: Activation of GABA receptor (unknown origin); settings: filed as activator
# HepG2 [7] = experiment: Cytotoxicity against human HepG2 cells assessed as cell growth inhibition incubated for 72 hrs by MTT assay; assay type: functional, cell-based; settings: HepG2, 72 h
# K562 [8] = experiment: Cytotoxicity against human K562 cells assessed as cell growth inhibition incubated for 72 hrs by MTT assay; assay type: functional, cell-based; settings: K562, 72 h
# KB = experiment: Cytotoxicity against human KB cells assessed as cell growth inhibition incubated for 72 hrs by MTT assay; assay type: functional, cell-based
# HCT-8 = experiment: Cytotoxicity against human HCT-8 cells assessed as cell growth inhibition incubated for 72 hrs by MTT assay; assay type: functional, cell-based; settings: HCT-8, 72 h
# MDA-MB-231 = experiment: Cytotoxicity against human MDA-MB-231 cells assessed as cell growth inhibition incubated for 72 hrs by MTT assay; assay type: functional, cell-based; settings: MDA-MB-231, 72 h
# Tubulin = experiment: Inhibition of tubulin polymerization (unknown origin) incubated for 30 mins in presence of GTP by spectrophotometric analysis; assay type: protein-complex assay, Homo sapiens
# [9] = molecular target: T1, Adrenergic receptor alpha-1 (Homo sapiens, UniProt P35348+P25100+P35368); experiment: Antagonist activity at Adrenergic alpha-1 receptor (unknown origin); assay type: functional
# T1 sequence (P35348 whole entry): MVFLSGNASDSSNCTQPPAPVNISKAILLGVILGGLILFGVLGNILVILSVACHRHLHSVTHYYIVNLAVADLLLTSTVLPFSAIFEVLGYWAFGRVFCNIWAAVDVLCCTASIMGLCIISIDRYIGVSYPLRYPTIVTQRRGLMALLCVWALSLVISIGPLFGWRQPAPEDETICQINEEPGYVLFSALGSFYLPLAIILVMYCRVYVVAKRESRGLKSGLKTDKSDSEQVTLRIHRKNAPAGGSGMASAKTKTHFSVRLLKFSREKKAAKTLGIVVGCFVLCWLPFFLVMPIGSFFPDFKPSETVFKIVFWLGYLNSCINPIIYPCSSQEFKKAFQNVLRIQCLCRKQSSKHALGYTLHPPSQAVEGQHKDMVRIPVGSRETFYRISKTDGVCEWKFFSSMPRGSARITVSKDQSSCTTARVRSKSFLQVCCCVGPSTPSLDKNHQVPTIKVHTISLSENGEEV
# T1 sequence (P25100 whole entry): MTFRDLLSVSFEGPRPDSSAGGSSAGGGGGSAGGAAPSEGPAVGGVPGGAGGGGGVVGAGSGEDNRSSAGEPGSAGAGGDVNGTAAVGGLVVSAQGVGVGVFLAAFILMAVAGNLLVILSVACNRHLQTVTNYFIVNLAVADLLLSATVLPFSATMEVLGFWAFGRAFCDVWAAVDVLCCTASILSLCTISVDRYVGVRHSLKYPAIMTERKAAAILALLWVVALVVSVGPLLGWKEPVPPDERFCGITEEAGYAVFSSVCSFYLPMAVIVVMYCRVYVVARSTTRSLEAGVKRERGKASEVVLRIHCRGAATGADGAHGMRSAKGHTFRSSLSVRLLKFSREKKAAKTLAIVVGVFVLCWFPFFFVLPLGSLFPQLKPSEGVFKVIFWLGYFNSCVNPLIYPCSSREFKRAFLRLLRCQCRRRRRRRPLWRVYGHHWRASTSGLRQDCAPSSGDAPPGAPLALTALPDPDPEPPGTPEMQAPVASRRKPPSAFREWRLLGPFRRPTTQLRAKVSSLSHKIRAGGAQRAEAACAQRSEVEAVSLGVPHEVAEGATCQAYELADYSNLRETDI
# T1 sequence (P35368 whole entry): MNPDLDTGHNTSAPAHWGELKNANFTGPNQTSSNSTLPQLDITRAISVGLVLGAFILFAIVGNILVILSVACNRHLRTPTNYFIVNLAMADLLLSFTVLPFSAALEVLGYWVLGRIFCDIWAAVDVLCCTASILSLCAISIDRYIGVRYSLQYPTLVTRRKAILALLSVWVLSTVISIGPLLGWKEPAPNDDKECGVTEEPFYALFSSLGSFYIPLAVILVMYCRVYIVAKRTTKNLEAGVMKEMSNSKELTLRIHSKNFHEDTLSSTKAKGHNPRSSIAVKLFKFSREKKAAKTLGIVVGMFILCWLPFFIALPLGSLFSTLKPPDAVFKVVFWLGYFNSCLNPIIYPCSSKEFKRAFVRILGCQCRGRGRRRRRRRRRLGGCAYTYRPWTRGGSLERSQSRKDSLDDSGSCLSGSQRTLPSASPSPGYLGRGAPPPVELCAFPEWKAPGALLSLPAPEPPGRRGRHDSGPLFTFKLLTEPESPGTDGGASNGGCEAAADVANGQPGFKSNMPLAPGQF
# Proline--tRNA ligase = molecular target: T2, Proline--tRNA ligase (Plasmodium falciparum (isolate 3D7), UniProt Q8I5R7); experiment: Inhibition of Plasmodium falciparum 3D7 Prolyl-tRNA synthetase
# T2 sequence (Q8I5R7 whole entry): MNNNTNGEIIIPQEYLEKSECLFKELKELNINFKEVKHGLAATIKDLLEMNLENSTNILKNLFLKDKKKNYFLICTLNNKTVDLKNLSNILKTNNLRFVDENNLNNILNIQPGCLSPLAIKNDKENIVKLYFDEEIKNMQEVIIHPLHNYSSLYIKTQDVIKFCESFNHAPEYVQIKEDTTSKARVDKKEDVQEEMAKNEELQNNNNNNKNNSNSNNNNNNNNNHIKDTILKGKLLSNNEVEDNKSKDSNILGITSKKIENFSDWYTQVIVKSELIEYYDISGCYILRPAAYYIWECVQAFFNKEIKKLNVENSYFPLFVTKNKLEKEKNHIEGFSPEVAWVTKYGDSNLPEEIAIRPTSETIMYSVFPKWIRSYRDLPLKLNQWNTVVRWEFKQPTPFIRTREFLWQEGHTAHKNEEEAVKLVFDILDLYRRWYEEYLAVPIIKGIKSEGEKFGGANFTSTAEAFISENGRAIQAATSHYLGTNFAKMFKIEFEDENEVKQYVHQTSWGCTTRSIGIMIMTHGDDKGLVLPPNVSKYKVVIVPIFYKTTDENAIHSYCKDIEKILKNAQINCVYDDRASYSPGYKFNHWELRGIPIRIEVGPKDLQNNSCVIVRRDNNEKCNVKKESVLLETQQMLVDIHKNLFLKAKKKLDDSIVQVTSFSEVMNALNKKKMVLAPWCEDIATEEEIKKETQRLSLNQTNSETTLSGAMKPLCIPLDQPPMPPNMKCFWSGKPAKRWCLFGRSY
# [10] = Inhibition of COX (unknown origin); design: species or system Homo sapiens
# [11] = molecular target: Vascular endothelial growth factor receptor 2 (Homo sapiens, UniProt P35968); experiment: Inhibition of VEGFR-2 (unknown origin) using poly(Glu:Tyr)(4:1) and ATP as substrate by incubated for 1 hr by spectrophotometric based ELISA
# [12] = Cytotoxicity against human HUVEC cells assessed as cell growth inhibition incubated for 72 hrs by SRB assay; assay type: toxicity, cell-based
# HepG2 [13] = experiment: Cytotoxicity against human HepG2 cells assessed as growth inhibition by MTT assay; assay type: functional, cell-based
# [14] = molecular target: Phosphatidylinositol 4,5-bisphosphate 3-kinase catalytic subunit gamma isoform (Homo sapiens, UniProt P48736); experiment: Inhibition of PI3Kgamma (unknown origin)
# Phosphatidylinositol 4,5-bisphosphate 3-kinase catalytic subunit gamma isoform, sequence (P48736 whole entry, canonical isoform): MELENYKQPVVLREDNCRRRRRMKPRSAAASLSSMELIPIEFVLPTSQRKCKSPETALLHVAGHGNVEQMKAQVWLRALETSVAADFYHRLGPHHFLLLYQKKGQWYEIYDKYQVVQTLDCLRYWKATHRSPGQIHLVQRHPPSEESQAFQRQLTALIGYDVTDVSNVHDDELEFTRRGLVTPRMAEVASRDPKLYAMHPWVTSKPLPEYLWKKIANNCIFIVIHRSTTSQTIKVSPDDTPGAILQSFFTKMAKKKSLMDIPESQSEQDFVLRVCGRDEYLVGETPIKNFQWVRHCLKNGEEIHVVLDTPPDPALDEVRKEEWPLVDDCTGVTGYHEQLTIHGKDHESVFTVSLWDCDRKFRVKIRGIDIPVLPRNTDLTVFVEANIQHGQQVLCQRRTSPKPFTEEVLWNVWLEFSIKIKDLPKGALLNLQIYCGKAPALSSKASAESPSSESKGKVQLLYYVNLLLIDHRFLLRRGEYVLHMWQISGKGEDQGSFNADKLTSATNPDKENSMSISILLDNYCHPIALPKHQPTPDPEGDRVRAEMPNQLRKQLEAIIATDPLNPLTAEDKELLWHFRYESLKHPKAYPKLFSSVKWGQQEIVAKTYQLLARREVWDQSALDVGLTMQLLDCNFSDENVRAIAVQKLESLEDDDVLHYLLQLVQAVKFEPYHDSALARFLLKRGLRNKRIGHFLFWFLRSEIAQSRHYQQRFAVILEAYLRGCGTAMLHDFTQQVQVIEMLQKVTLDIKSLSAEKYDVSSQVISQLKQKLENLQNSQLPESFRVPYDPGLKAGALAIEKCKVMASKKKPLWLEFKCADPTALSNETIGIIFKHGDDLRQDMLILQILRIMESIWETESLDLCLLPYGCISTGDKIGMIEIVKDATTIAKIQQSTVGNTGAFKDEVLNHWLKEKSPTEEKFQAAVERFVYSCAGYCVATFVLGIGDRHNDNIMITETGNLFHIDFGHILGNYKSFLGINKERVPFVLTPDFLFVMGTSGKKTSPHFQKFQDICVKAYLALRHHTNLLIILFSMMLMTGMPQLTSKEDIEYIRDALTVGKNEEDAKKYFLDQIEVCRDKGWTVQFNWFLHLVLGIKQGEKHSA
# [15] = molecular target: Sterol 14-alpha demethylase (Trypanosoma cruzi (strain CL Brener), UniProt Q7Z1V1); experiment: Inhibition of Trypanosoma cruzi Sterol 14-alpha demethylase
# Sterol 14-alpha demethylase, sequence (Q7Z1V1 whole entry): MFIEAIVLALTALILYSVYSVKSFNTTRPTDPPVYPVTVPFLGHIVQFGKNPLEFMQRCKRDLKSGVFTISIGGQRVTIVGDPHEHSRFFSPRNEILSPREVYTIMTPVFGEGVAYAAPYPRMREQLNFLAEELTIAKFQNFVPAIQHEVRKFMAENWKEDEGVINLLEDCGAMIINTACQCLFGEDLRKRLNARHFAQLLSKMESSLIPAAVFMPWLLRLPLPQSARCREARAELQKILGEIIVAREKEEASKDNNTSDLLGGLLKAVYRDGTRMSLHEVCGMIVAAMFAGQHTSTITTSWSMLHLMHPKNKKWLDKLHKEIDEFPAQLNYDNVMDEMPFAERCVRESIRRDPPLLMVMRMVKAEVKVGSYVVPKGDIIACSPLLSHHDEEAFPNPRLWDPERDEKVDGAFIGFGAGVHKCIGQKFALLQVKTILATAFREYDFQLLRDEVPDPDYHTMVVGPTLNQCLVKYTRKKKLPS
# Epidermal growth factor receptor, sequence (P00533 whole entry): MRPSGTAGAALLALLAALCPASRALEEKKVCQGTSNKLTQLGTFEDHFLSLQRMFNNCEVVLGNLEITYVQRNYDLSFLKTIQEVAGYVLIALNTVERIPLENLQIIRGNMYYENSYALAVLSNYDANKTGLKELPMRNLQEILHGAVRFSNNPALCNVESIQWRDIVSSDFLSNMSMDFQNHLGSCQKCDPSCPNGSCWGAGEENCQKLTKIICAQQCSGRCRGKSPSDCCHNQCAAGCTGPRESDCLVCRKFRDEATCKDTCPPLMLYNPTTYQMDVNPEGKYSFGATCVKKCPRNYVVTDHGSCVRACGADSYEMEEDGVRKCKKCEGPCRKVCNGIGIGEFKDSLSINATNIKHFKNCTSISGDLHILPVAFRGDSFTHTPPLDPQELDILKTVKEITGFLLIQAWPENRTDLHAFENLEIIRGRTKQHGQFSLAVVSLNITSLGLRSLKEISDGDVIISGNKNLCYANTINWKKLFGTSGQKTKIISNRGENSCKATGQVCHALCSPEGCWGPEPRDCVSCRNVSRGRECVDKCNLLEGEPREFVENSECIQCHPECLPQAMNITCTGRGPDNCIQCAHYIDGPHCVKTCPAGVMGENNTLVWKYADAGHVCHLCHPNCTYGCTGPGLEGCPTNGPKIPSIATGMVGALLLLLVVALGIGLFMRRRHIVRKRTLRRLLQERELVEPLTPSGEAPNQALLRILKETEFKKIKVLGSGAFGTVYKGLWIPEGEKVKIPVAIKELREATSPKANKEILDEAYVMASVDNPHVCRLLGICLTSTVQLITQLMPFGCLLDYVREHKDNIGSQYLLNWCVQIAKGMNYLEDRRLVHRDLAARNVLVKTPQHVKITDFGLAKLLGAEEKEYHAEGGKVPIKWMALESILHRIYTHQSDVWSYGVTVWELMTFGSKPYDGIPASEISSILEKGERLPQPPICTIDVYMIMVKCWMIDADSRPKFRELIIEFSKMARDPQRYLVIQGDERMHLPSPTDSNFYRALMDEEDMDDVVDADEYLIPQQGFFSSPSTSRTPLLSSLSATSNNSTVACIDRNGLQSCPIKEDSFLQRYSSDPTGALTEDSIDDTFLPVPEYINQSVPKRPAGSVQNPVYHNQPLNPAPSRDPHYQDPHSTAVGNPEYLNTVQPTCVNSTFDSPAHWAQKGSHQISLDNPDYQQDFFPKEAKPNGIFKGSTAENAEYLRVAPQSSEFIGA
smiles,measurement,setting,value
Cc1ccc2c(-c3ccccc3)nc(=O)n(C(C)C)c2c1 [PROQUAZONE],IC50,[1],0.002 µM
O=c1cc(N2CCOCC2)oc2c(-c3ccccc3)cccc12 [LY-294002],IC50,[2],57.3 µM
COc1cc([C@@H]2c3cc4c(cc3[C@@H](O[C@@H]3O[C@@H]5CO[C@@H](C)O[C@H]5[C@H](O)[C@H]3O)[C@H]3COC(=O)[C@H]23)OCO4)cc(OC)c1O [ETOPOSIDE],IC50 at 48 h,[3],4.32 µM
O=C(CCCCCOc1ccc2c(c1)N=C(NC(=O)c1ccccc1)N1CCN=C21)NO,IC50,[4],0.00298 µM
same,IC50,Histone deacetylase,0.05 µM
same,IC50,HCT-116,0.33 µM
same,IC50,K562 [5],0.095 µM
same,IC50,HuT78,0.062 µM
CN(C)CCCOc1ccc2c(NCCc3cnc(NC(=O)Nc4cccc(Cl)c4)s3)ncnc2c1,EC50,MOLM-13,0.005 µM
same,EC50,MV4-11,0.005 µM
O=C1CN2Cc3c(ccc(Cl)c3Cl)N=C2N1 [ANAGRELIDE],IC50,[6],0.026 µM
Cc1ccccc1-n1c(C)nc2ccccc2c1=O,ED50,Homo sapiens,400 µmol/kg
COc1ccc(N(C)c2nc(NCc3cccnc3)nc3ccccc23)cc1,IC50,HepG2 [7],0.11 µM
same,IC50,K562 [8],0.11 µM
same,IC50,KB,0.11 µM
same,IC50,HCT-8,0.11 µM
same,IC50,MDA-MB-231,0.11 µM
same,IC50,Tubulin,2.45 µM
CCCC(=O)N1CCCN(c2nc(N)c3cc(OC)c(OC)cc3n2)CC1 [BUNAZOSIN],IC50,[9],0.00122 µM
O=C(C[C@H]1NCCC[C@@H]1O)Cn1cnc2ccccc2c1=O,EC50,Proline--tRNA ligase,0.004 µM
OC1Nc2ccccc2-c2cc(-c3ccc(Cl)cc3)nn21 (centres undefined),IC50 at 48 h,[3],3.86 µM
COc1cc2nc(N3CCN(C(=O)c4ccco4)CC3)nc(N)c2cc1OC [PRAZOSIN],IC50,[10],1.9 µM
COc1cc2ncnc(-n3ncc4cc(NC(=O)Nc5ccc(C)c(Cl)c5)ccc43)c2cc1OC,IC50,[11],0.012 µM
same,IC50 at 72 h,[12],1.8 µM
COc1cccc2c1C(=O)c1c(O)c3c(c(O)c1C2=O)C[C@@](O)(C(=O)CO)C[C@@H]3O[C@H]1C[C@H](N)[C@H](O)[C@H](C)O1 [DOXORUBICIN],IC50,HepG2 [13],60.3 µM
NC(=O)c1cc(-c2ccc3ncnc(-c4cccc(C(=O)NCCN5CCOCC5)c4)c3c2)ccc1Cl,IC50,[14],0.017 µM
C[C@@H](n1cnc2cc(Cl)ccc2c1=O)[C@](O)(Cn1cncn1)c1ccc(F)cc1F [ALBACONAZOLE],IC50,[15],0.001 µM
COc1cc(C2Sc3ccccc3C(=O)N2NC(=O)c2ccc(-n3c(-c4ccncc4)nc4ccccc4c3=O)cc2)ccc1O (centres undefined),IC50,HepG2 [13],60.3 µM
same,IC50,[2],31.9 µM
